Data as given in patent publication US8450352B2, “Thiazole compounds and their use for inhibiting phosphodiesterase 4, TNF-α, and IL-4” (Otsuka Pharmaceutical Co., Ltd., priority 2004, dated 2013).
Where a name gives a salt, the structure may show the parent alone.

Row | SMILES | melting point
1 | CCOc1ccc(-c2nc(/C=C/C(=O)c3ccc(NC(C)=O)cc3)cs2)cc1OCC [Example 28] | 199.5 to 201.5 °C
2 | CCOc1ccc(-c2nc(/C=C/C(=O)c3ccccc3C(=O)OC)cs2)cc1OCC [Example 33] | 132 to 133 °C
3 | COc1ccc(-c2nc(/C=C/C(=O)c3ccc(O)cc3)cs2)cc1OC [Example 37] | 174 to 177 °C
4 | CCOc1ccc(-c2nc(CCC(=O)c3ccccc3Cl)cs2)cc1OCC [Example 104] | 64.4 to 65.1 °C
5 | CCOc1ccc(-c2nc(/C=C/C(=O)c3ccccc3)cs2)cc1OCC [Example 14] | 129 to 130 °C
6 | CCOc1ccc(-c2nc(/C=C/C(=O)c3ccc(O)c(C(=O)OC)c3)cs2)cc1OCC [Example 20] | 161.3 to 162.8 °C
7 | CCOc1ccc(-c2nc(/C=C/C(=O)c3ccc(N)cc3)cs2)cc1OCC [Example 30] | 148 to 150 °C
8 | COc1ccc(-c2nc(CC(=O)Cc3ccc(OC(C)=O)c(OC(C)=O)c3)cs2)cc1OC [Example 242, 3-[2-(3,4-dimethoxyphenyl)thiazole-4-yl]-1-(3,4-diacetoxyphenyl)propanone] | 128 to 128.5 °C
9 | CCOc1ccc(-c2nc(/C=C/C(=O)c3cc(OC)c(OC)c(OC)c3)cs2)cc1OCC [Example 11] | 155 to 156 °C
10 | CCOc1ccc(-c2nc(/C=C/C(=O)c3cc(Cl)c(N)c(Cl)c3)cs2)cc1OCC (as salt: hydrochloride) [Example 12] | 165 to 168 °C
11 | CCOc1ccc(-c2nc(CCC(=O)c3nccs3)cs2)cc1OCC [Example 90, 3-[2-(3,4-diethoxyphenyl)thiazole-4-yl]-1-thiazole-2-yl-1-propanone] | 93.1 to 94.4 °C
12 | CCOc1ccc(-c2nc(/C=C/C(=O)c3ccc([N+](=O)[O-])cc3)cs2)cc1OCC [Example 32] | 125 to 127 °C
13 | CCOc1ccc(-c2nc(/C=C/C(=O)c3cccc(O)c3)cs2)cc1OCC [Example 16] | 144.5 to 146 °C
14 | CCOc1ccc(-c2nc(/C=C/C(=O)c3ccc(O)c(C(=O)O)c3)cs2)cc1OCC [Example 19] | 195 to 196 °C
15 | CCOc1ccc(-c2nc(/C=C/C(=O)c3ccc(O)cc3)cs2)cc1OCC [Example 10] | 133 to 134 °C
16 | CCOc1ccc(-c2nc(CCC(=O)c3ccccc3O)cs2)cc1OCC [Example 98] | 113.7 to 114.9 °C
17 | CCOc1ccc(-c2nc(CCC(=O)c3cc(OC)ccc3OC)cs2)cc1OCC [Example 95] | 97.8 to 98.5 °C
18 | CCOc1ccc(C(=O)/C=C/c2csc(-c3ccc(OCC)c(OCC)c3)n2)cc1 [Example 31] | 130 to 135 °C
19 | CCOc1ccc(CC(=O)Cc2csc(-c3ccc(OC)c(OC)c3)n2)cc1OCC [Example 243, 3-[2-(3,4-dimethoxyphenyl)thiazole-4-yl]-1-(3,4-diethoxyphenyl)propanone] | 141.3 to 142.4 °C
20 | CCOc1ccc(-c2nc(CCC(=O)c3ccccc3C(=O)OC)cs2)cc1OCC [Example 240, methyl 2-{3-[2-(3,4-diethoxyphenyl)thiazole-4-yl]propionyl}benzoate] | 91.7 to 92.9 °C
21 | COc1ccc(-c2nc(CCC(=O)c3ccc(OC(C)=O)c(OC(C)=O)c3)cs2)cc1OC [Example 94] | 128 to 128.5 °C
22 | CCOc1ccc(-c2nc(CCC(=O)c3ccccc3Br)cs2)cc1OCC [Example 103] | 66.1 to 67.9 °C
23 | CCOc1ccc(-c2nc(/C=C/C(=O)c3ccccc3[N+](=O)[O-])cs2)cc1OCC [Example 27] | 142 to 143 °C

Row | SMILES | melting point
24 | CCOc1ccc(-c2nc(/C=C/C(=O)c3ccc(F)cc3)cs2)cc1OCC [Example 25] | 116 to 121 °C
25 | CCOc1cc(-c2nc(/C=C/C(=O)c3cc(OC)ccc3OC)cs2)ccc1OC [Example 40] | 79 to 82 °C
26 | CCOc1ccc(-c2nc(CCC(=O)c3ccccc3F)cs2)cc1OCC [Example 101] | 82.5 to 83.5 °C
27 | CCOc1ccc(-c2nc(/C=C/C(=O)c3ccc(C(C)=O)cc3)cs2)cc1OCC [Example 23] | 128 to 129 °C
28 | CCOc1ccc(-c2nc(/C=C/C(=O)c3c(O)cc(O)cc3O)cs2)cc1OCC [Example 9] | 188 to 189 °C
29 | CCOc1ccc(-c2nc(/C=C/C(=O)c3ccc(Cl)c(Cl)c3)cs2)cc1OCC [Example 29] | 138 to 139 °C
30 | COc1ccc(-c2nc(/C=C/C(=O)c3ccc(O)c(C(=O)O)c3)cs2)cc1OC [Example 39] | 227.4 to 228 °C
31 | CCOc1ccc(-c2nc(/C=C/C(=O)c3ccc(C)cc3)cs2)cc1OCC [Example 26] | 124 to 125.5 °C
32 | CCOc1ccc(-c2nc(/C=C/C(=O)c3ccc(OC)c(OC)c3)cs2)cc1OCC [Example 13] | 152 to 153 °C
33 | CCOc1ccc(-c2nc(/C=C/C(=O)c3ccc(OC(C)=O)c(OC(C)=O)c3)cs2)cc1OCC [Example 8] | 139 to 140 °C
34 | CCOc1ccc(-c2nc(CCC(O)c3ccccc3OC)cs2)cc1OCC (stereo not drawn) [Example 186, 3-[2-(3,4-diethoxyphenyl)thiazole-4-yl]-1-(2-methoxyphenyl)-1-propanol] | 78.2 to 79 °C
35 | COc1ccc(-c2nc(/C=C/C(=O)c3cc(C(C)(C)C)c(O)c(C(C)(C)C)c3)cs2)cc1OC [Example 22] | 228 to 230 °C
36 | CCOc1ccc(-c2nc(CCC(=O)c3ccc(O)c(O)c3)cs2)cc1OCC (as salt: hydrochloride) [Example 92] | 153.2 to 153.8 °C
37 | CCOc1ccc(-c2nc(/C=C/C(=O)c3ccc(C#N)cc3)cs2)cc1OCC [Example 18] | 164 to 167 °C
38 | COc1ccc(-c2nc(/C=C/C(=O)c3ccc(O)c(O)c3)cs2)cc1OC (as salt: hydrochloride) [Example 7] | 162 to 165 °C
39 | COc1ccc(-c2nc(/C=C/C(=O)c3cc(O)cc(O)c3)cs2)cc1OC (as salt: hydrochloride) [Example 6] | 164 to 168 °C
40 | CCOc1ccc(-c2nc(/C=C/C(=O)c3ccccc3O)cs2)cc1OCC (as salt: hydrobromid) [Example 15] | 126 to 127 °C
41 | CCOc1ccc(-c2nc(/C=C/C(=O)c3cccc([N+](=O)[O-])c3)cs2)cc1OCC [Example 24] | 125 to 126 °C
42 | CCOc1ccc(-c2nc(/C=C/C(=O)c3ccc(Cl)cc3)cs2)cc1OCC [Example 21] | 131 to 133 °C
43 | CCOc1ccc(-c2nc(CCC(=O)c3cc(Cl)ccc3OC)cs2)cc1OCC [Example 108] | 90.2 to 92 °C
44 | CCOc1ccc(C(=O)CCc2csc(-c3ccc(OC)c(OC)c3)n2)cc1OCC [Example 93] | 141.3 to 142.4 °C
45 | CCOc1ccc(-c2nc(/C=C/C(=O)c3ccc(C(=O)OC)cc3)cs2)cc1OCC [Example 17] | 150 to 151 °C
